Experimental findings from US5004756A, “Anti-cancer activity potentiator” (priority 1988, dated 1991) are described below.

Converted amounts (≈) assume the structure as drawn. Like-named read-outs stand apart in the source and are kept apart here.

Assay [1] has as its system V79/S. Kind of assay: Colony formation (proliferation) inhibition, sensitive Chinese hamster cells (A-I Part 1). The assay is classed as cell-based. The protocol: (§1) Sensitive cell line V79/S and ADM-resistant cell line V79/ADM of the Chinese hamster were used, and sensitive cell line PLC/S and cholchicin-resistant cell line PLC/Col, as human hepatoma cells.
(§2) The sensitive cell lines (400 cells) or the resistant cell lines (600 cells) were each incubated for 24 hours in 10 ml of Eagle's MEM medium containing 10% bovine serum. Each of the drugs indicated in Table 1 below was dissolved in ethanol, and 50 microliters of the resulting solution was added to the medium. The incubation was further carried out for 9 days. The concentration of the drug which inhibits 50% of the colony formation (proliferation) of the tumor cells was calculated.
(§3) V79/S and V79/ADM were tested by using all of the drugs described above, but PLC/S and PLC/Col were tested by using only the malate of formula (I), adriamycin and peplomycin.
(§4) The concentrations (micrograms/ml) required to inhibit 50% of the proliferation of the tumor cells, expressed by IC50, are shown in Table 1.

Assay [2] deals with V79/S. Briefly: Anti-cancer activity potentiating action, colony formation, V79/S parent cells (A-III). In kind it is cell-based, Chinese hamster. Conditions: for IC50: Cricetulus griseus. The protocol:
(§5) The anti-cancer activity potentiating action of the malate of formula (I) was examined using Chinese hamster cells (sensitive cell line V79/S and ADM-resistant cell line V79/ADM), human hepatoma cells (sensitive cell line PLC/S and colchicin-resistant cell line PLC/Col) and mouse leukemia cells (sensitive cell line L5178Y/S) and aclarubicin-resistant cell line L5178Y/ACR).
(§6) Of these tumor cells, the sensitive cells (400 cells) and the resistant cells (600 cells) were each incubated in 10 ml of Eagle's MEM medium containing 10% bovine serum for 24 hours, and then each of the test drugs indicated in Table 6 was added. Thereafter, the incubation was carried out for 9 days. The concentration (IC50 : micrograms/ml) of the test drug required to inhibit 50% of the colony formation (proliferation) of the tumor cells was calculated.
(§7) (A) Chinese hamster V79 cells
(§8) As anti-cancer agents, there were used adriamycin (ADM), aclarubicin (ACR), actinomycin D (ACD), 5-fluorouracil (5-FU), cytarabin (Ara-C), cisplatin (CDDP), methotrexate (MTX), mitomycin C (MMC), nimustine (ACNU), mitoxantrone, etoposide ([…]), vincristine (VCR), bleomycin (BLM) and peplomycin (PEP). For the sensitive cells, the anti-cancer agents were used in combination with 10 micrograms/ml of the malate of formula (I), and for the resistant cells, the anti-cancer agents were used in combination with the malate of formula (I) 3 micrograms/ml, 5 micrograms/ml, and 10 micrograms/ ml.

Assay [3] deals with clinically isolated human cancer cells (lung adenocarcinoma, lung squamous cell carcinoma, osteosarcoma, ovarian carcinoma). Briefly: Anti-tumor activity on clinically isolated human cancer cells, morphological changes (A-I Part 2). The assay is classed as cell-based. Conditions: 0.2 μg/ml.
The test system of assay [4] is L5178Y/S. Kind of assay: Anti-cancer activity potentiating action, colony formation, mouse leukemia sensitive cells (table head prints PLC/S). In kind it is cell-based. Conditions: head prints PLC/S (parent cells); for IC50: Mus musculus, L5178Y. The protocol:
as §5, §6
(§9) Adriamycin (ADM) and aclarubicin (ACR) as anti-cancer agents were used in combination with 20 micrograms/ml of the malate of formula (I).

Assay [5] deals with V79/ADM. Briefly: Colony formation (proliferation) inhibition, ADM-resistant Chinese hamster cells (A-I Part 1). In kind it is cell-based. The protocol: as §1, §2, §3, §4
The subject of assay [6] is L5178Y/ACR. Kind of assay: Anti-cancer activity potentiating action, colony formation, aclarubicin-resistant mouse leukemia cells (table head prints PLC/ACR). In kind it is cell-based. Conditions: for IC50: Mus musculus, L5178Y. The protocol: as §5, §6, §9
Assay [7] relates to V79/ADM. Briefly: Anti-cancer activity potentiating action, colony formation, V79/ADM resistant cells (A-III). In kind it is cell-based, Chinese hamster. Conditions: for IC50: Cricetulus griseus. The protocol: as §5, §6, §7, §8
Assay [8] concerns Meth-A. Kind of assay: Tumor proliferation inhibiting activity, Meth-A (A-IV). In kind it is in vivo, BALB/c rats. Conditions: MMC 1.0 mg/kg/day, days 1-5. The protocol: Female BALB/c rats (7 weeks old), 8 per group, were used. Tumor cells (Meth-A) induced by methyl cholanthrene were transplanted intraperitoneally to the rats, and then the malate of formula (I) was administered intraperitoneally to the rats. The proliferation inhibiting activity of the malate was examined by comparing the weight of the tumor cells with that of the tumor cells in the non-treated control group.
The dose of the malate of formula (I) was 1.25, 2.5, 5.0, and 10.0 mg/kg/day. Mitomycin C (MMC) was administered as another anti-cancer agent. The weight of the tumor cells was measured, and the proliferation inhibiting activity was determined.
The weight (g) of the tumor with respect to that of the tumor in the control group (T/C, %) after 16 days from the transplantation of the tumor cells, and the number of surviving rats after 16 days are shown in Table 8.

The test system of assay [9] is human tumor cells (muscle fibrosarcoma HT-1080). Briefly: Anti-cancer activity potentiating action in nude mice with HT-1080 (A-VI). Conditions: MMC 3 mg/kg, days 5, 10, 15, 20; day 36. The assay is classed as in vivo, human tumor in ICR nude mice. The protocol:
ICR nude mice, 6 per group, were used, and the experiment was conducted substantially in accordance with the procedure described in A-V.
As tumor cells, human tumor cells (muscle fibrosarcoma HT-1080) were used, and 5 days after the transplantation, drug administration was started.
The administration was further performed every 5 days from the day of starting the administration, and the total number of administrations was therefore 4.
Mitomycin C (MMC) was tested by the same way as above.
Thirty-six days after the transplantation of the tumor, a tumor mass was extracted and its weight was measured. From the difference of the weight of the tumor from the non-treated control group, the tumor growth inhibition ratio (%) was calculated.

Assay [10] deals with PLC/S. Kind of assay: Colony formation (proliferation) inhibition, sensitive human hepatoma cells (A-I Part 1). The assay is classed as cell-based. Conditions: PLC/S; 9 days; Table 1. The protocol:
as §1, §2, §3, §4

The subject of assay [11] is PLC/S. Kind of assay: Anti-cancer activity potentiating action, colony formation, PLC/S parent cells (A-III). Conditions: PLC/S; with compound (I) 5 μg/ml. In kind it is cell-based, human. The protocol: as §5, §6
(§10) As anti-cancer agents, adriamycin (ADM) and peplomycin (PEP) were used in combination with the malate of formula (I) (5 micrograms/ml).

Assay [12] has as its system PLC/Col. Briefly: Colony formation (proliferation) inhibition, colchicin-resistant human hepatoma cells (A-I Part 1). Conditions: PLC/Col; 9 days; Table 1. The assay is classed as cell-based. The protocol: as §1, §2, §3, §4
Assay [13] relates to PLC/Col. Kind of assay: Anti-cancer activity potentiating action, colony formation, PLC/Col resistant cells (A-III). In kind it is cell-based, human. Conditions: PLC/Col; with compound (I) 5 μg/ml. The protocol: as §5, §6, §10
The mark [14] stands for this setting: read-out: IC50, anti-cancer agent alone.
[15] abbreviates: read-out: IC50 in combination with compound (I).
Setting [16] is: V79/S, with compound (I) 10 μg/ml.
[17] abbreviates: alone, Table 7 lower part, read-out: IC50, anti-cancer agent alone.
Setting [18] is: with compound (I) 20 μg/ml, read-out: IC50 in combination with compound (I).
[19] abbreviates: V79/ADM, with compound (I) 3 μg/ml.

For `CC[C@@]1(O)C[C@H](O[C@H]2C[C@H](N(C)C)[C@H](O[C@H]3C[C@H](O)[C@H](O[C@H]4CCC(=O)[C@H](C)O4)[C@H](C)O3)[C@H](C)O2)c2c(cc3c(c2O)C(=O)c2c(O)cccc2C3=O)[C@H]1C(=O)OC` [ACR, aclarubicin], the IC50 (commonly the concentration that inhibits the measured activity by half) in assay [1] (Cricetulus griseus, 216 h) stood at 0.037 µg/mL (≈ 0.0456 µM); in assay [2] (setting [14]), 0.037 µg/mL; in [2] (setting [15]) it was 0.027 µg/mL; in assay [4] (setting [17]), 0.019 µg/mL; in assay [4] (setting [18]), 0.017 µg/mL; in [5] (Cricetulus griseus, 216 h), 0.27 µg/mL (≈ 0.333 µM). The IC50 is 0.07 µg/mL in assay [6] (setting [17]), 0.043 µg/mL in assay [6] (setting [18]), 0.27 µg/mL in [7] (setting [14]) and 0.024 µg/mL in assay [7] (setting [15]). Besides, the Potentiation activity in assay [2] (setting [16]) is on record as 1.37 times; in [4] (with compound (I) 20 μg/ml) it was 1.0 times; in assay [6] (with compound (I) 20 μg/ml), 1.8 times; in assay [7] (V79/ADM, with compound (I) 10 μg/ml), 11.3 times. Further, the “Efficacy ratio (rated significant by Fisher's test)” value in [3] is 2/8.

`CO[C@@]12[C@H](COC(N)=O)C3=C(C(=O)C(C)=C(N)C3=O)N1C[C@@H]1N[C@@H]12` [MMC, mitomycin C]: the “Number of surviving animals” value in assay [8] (16 days later) was 8/8. Also, in assay [8] (day 16), the “T/C (tumor weight)” value came out at 21%. The “Tumor weight mean ± S.D.” value in [8] (day 16) amounted to 0.347 ± 0.185 g. For the same compound, the IC50 amounted to 0.01 µg/mL in [2] (setting [15]); 0.02 µg/mL in assay [2] (V79/S, alone, Table 6, read-out: IC50, anti-cancer agent alone); 0.057 µg/mL in assay [7] (V79/ADM, alone, Table 6, read-out: IC50, anti-cancer agent alone); 0.011 µg/mL in assay [7] (V79/ADM, with compound (I) 5 μg/ml, read-out: IC50 in combination with compound (I)). Moreover, the Potentiation activity in [2] (setting [16]) was found to be 2.0 times; in assay [7] (V79/ADM, with compound (I) 5 μg/ml), 5.20 times. For the same compound, the “Tumor growth inhibition ratio” value in [9] was found to be 47.0%. In addition, the Tumor weight in assay [9] amounted to 1.92 ± 0.27. Also, the “Efficacy ratio (rated significant by Fisher's test)” value in assay [3] is reported as 0/8.

On to `Cc1c(N)nc([C@H](CC(N)=O)NC[C@H](N)C(N)=O)nc1C(=O)N[C@H](C(=O)N[C@H](C)[C@@H](O)[C@H](C)C(=O)N[C@H](C(=O)NCCc1nc(-c2nc(C(=O)NCCCN[C@@H](C)c3ccccc3)cs2)cs1)[C@@H](C)O)[C@@H](O[C@@H]1O[C@@H](CO)[C@@H](O)[C@H](O)[C@@H]1O[C@H]1O[C@H](CO)[C@@H](O)[C@H](OC(N)=O)[C@@H]1O)c1c[nH]cn1` [PEP, peplomycin], for which the IC50 in assay [1] (V79/S, 9 days, Table 1) came to 1.95 µg/mL (≈ 1.32 µM); in [10] it was 0.24 µg/mL (≈ 0.163 µM); in assay [12] it was 0.19 µg/mL (≈ 0.129 µM); in assay [5] (V79/ADM, 9 days, Table 1), 0.48 µg/mL (≈ 0.326 µM). Further, the “IC50, anti-cancer agent alone” value in [2] (V79/S, alone, Table 6) came to 1.95 µg/mL; in [7] (V79/ADM, alone, Table 6), 0.48 µg/mL. Besides, the “IC50 in combination with compound (I)” value in [2] (setting [16]) came out at 0.0165 µg/mL; in assay [7] (setting [19]), 0.0157 µg/mL. Besides, the Potentiation activity was determined as 118 times in assay [2] (setting [16]), 3.0 times in assay [11], 6.3 times in [13] and 30.5 times in assay [7] (setting [19]).
